According to PubChem BioAssay AID330 (DTP/NCI, 2004):
Where “and” joins values, the source holds several entries; their conditions need not be identical. Equal entries are not always repeated. Inconclusive results and toxic doses are left out. The calls were made as follows: active = survival T/C of 150% or more; inactive = T/C below 125% in these data.

Test system: P388 leukemia ip, CD2F1 mice, survival T/C
Assay: NCI In Vivo Anticancer Drug Screen. Data for tumor model P388 Leukemia (intraperitoneal) in CD2F1 (CDF1) mice
Settings: endpoint: median survival time, higher = longer survival
How it was run: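 Mice carrying the transplanted tumor received test compound or vehicle. Survival was recorded in each group, and the value is the treated-group measurement divided by that of the vehicle-treated control group.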

[1] = dose: 50.0 mg/kg/injection, schedule: Q01DX009 (ip), vehicle: Klucel (hydroxypropylcellulose) (HPC)
[2] = dose: 100.0 mg/kg/injection, schedule: Q01DX009 (ip), vehicle: Klucel (hydroxypropylcellulose) (HPC)
[3] = dose: 50.0 mg/kg/injection, schedule: Q01DX005 (ip), vehicle: saline with Tween-80
[4] = dose: 100.0 mg/kg/injection, schedule: Q01DX005 (ip), vehicle: saline with Tween-80
[5] = dose: 12.5 mg/kg/injection, schedule: Q01DX009 (ip), vehicle: Klucel (hydroxypropylcellulose) (HPC)
[6] = dose: 25.0 mg/kg/injection, schedule: Q01DX009 (ip), vehicle: Klucel (hydroxypropylcellulose) (HPC)
[7] = dose: 15.0 mg/kg/injection, schedule: Q01DX005 (ip), vehicle: saline with Tween-80
[8] = dose: 30.0 mg/kg/injection, schedule: Q01DX005 (ip), vehicle: saline with Tween-80
[9] = dose: 50.0 mg/kg/injection, schedule: Q01DX005 (ip), vehicle: Klucel (hydroxypropylcellulose) (HPC)
[10] = dose: 100.0 mg/kg/injection, schedule: Q01DX005 (ip), vehicle: Klucel (hydroxypropylcellulose) (HPC)

Measured: T/C

CCOC(=O)C1Nc2ccc(Br)cc2C(C(=O)OCC)N1c1ccc(Br)cc1 (stereo not given)
inactive: [1] 102 % of control | [2] 102 % of control | dose: 200.0 mg/kg/injection, schedule: Q01DX009 (ip), vehicle: Klucel (hydroxypropylcellulose) (HPC) 94 % of control

Cc1cc(C)c(S(=O)(=O)N/N=C/C(=O)O)c(C)c1
inactive: dose: 12.5 mg/kg/injection, schedule: Q01DX009 (ip), vehicle: other 112 % of control and 117 % of control | dose: 25.0 mg/kg/injection, schedule: Q01DX009 (ip), vehicle: other 122 % of control
active: dose: 100.0 mg/kg/injection, schedule: Q01DX009 (ip), vehicle: other 154 % of control

COC(=O)[C@H]1[C@H]2C[C@@H]3c4[nH]c5cc(OC)ccc5c4CCN3C[C@H]2C[C@@H](OC(=O)CC(C)=O)[C@@H]1OC
inactive: [3] 95 % of control | [4] 91 % of control | dose: 200.0 mg/kg/injection, schedule: Q01DX005 (ip), vehicle: saline with Tween-80 88 % of control

COC(=O)c1ccccc1N=C/C(Cl)=C(/Cl)C(=O)O
inactive: dose: 6.25 mg/kg/injection, schedule: Q01DX009 (ip), vehicle: Klucel (hydroxypropylcellulose) (HPC) 100 % of control and 110 % of control and 96 % of control | [5] 100 % of control and 111 % of control and 117 % of control | [6] 113 % of control and 118 % of control and 121 % of control | [1] 113 % of control and 116 % of control and 119 % of control

O=C(O)c1ccc([N+](=O)[O-])o1
inactive: [6] 99 % of control | [1] 89 % of control | [2] 96 % of control

Cc1csnn1
inactive: [7] 105 % of control | [8] 100 % of control | dose: 60.0 mg/kg/injection, schedule: Q01DX005 (ip), vehicle: saline with Tween-80 102 % of control

NN/C(N)=N/S(=O)(=O)c1ccccc1
inactive: [9] 107 % of control | [10] 102 % of control

OCC1OC(Oc2ccc(Cl)cc2)C(O)C1O (stereo not given)
inactive: dose: 50.0 mg/kg/injection, schedule: Q04DX002 (ip), vehicle: saline with Tween-80 105 % of control | dose: 100.0 mg/kg/injection, schedule: Q04DX002 (ip), vehicle: saline with Tween-80 98 % of control | dose: 200.0 mg/kg/injection, schedule: Q04DX002 (ip), vehicle: saline with Tween-80 112 % of control

COC(=O)/C=C/NC(=O)c1ccccc1C(=O)OC
inactive: dose: 25.0 mg/kg/injection, schedule: Q01DX009 (ip), vehicle: suspension in saline 98 % of control | dose: 50.0 mg/kg/injection, schedule: Q01DX009 (ip), vehicle: suspension in saline 100 % of control | dose: 100.0 mg/kg/injection, schedule: Q01DX009 (ip), vehicle: suspension in saline 100 % of control | dose: 200.0 mg/kg/injection, schedule: Q01DX009 (ip), vehicle: suspension in saline 100 % of control

Cc1cc(C)nc(NS(=O)(=O)c2ccc(NC(=O)c3ccncc3)cc2)n1
inactive: [9] 95 % of control | [10] 96 % of control | dose: 200.0 mg/kg/injection, schedule: Q01DX005 (ip), vehicle: Klucel (hydroxypropylcellulose) (HPC) 91 % of control

CCN(CC)CCOC(=O)C(C)Oc1c2ccoc2c(OC)c2oc(C)cc(=O)c12 (stereo not given)
inactive: dose: 50.0 mg/kg/injection, schedule: Q01DX005 (ip), vehicle: saline 102 % of control | dose: 100.0 mg/kg/injection, schedule: Q01DX005 (ip), vehicle: saline 106 % of control | dose: 200.0 mg/kg/injection, schedule: Q01DX005 (ip), vehicle: saline 101 % of control

Cc1cc(C)cc(C(=O)NC(c2ccncc2)C(NC(=O)c2cc(C)cc(C)c2)c2ccncc2)c1 (stereo not given)
inactive: dose: 25.0 mg/kg/injection, schedule: Q01DX005 (ip), vehicle: saline with Tween-80 92 % of control | [3] 90 % of control | [4] 99 % of control | dose: 400.0 mg/kg/injection, schedule: Q01DX005 (ip), vehicle: saline with Tween-80 92 % of control

BrCc1ccc2ccc3ccc(CBr)nc3c2n1
inactive: dose: 7.5 mg/kg/injection, schedule: Q01DX005 (ip), vehicle: saline with Tween-80 103 % of control | [7] 115 % of control | [8] 106 % of control

CC1(C)C(=O)N(Br)C(=O)N1Br
inactive: [5] 101 % of control | [6] 99 % of control | [1] 99 % of control | [2] 90 % of control
